We go through 1 molecule from US11607422B2, “Uttroside B and derivatives thereof as therapeutics for hepatocellular carcinoma” (Rajiv Gandhi Centre for Biotechnology, an Autonomous …, priority 2016, dated 2023).

In general, IC50 refers to the concentration at which inhibition is half-maximal. Low readings indicate greater potency, high ones weaker potency.

The subject of assay [1] is autophagy related proteins in HepG2 cells. Kind of assay: Western blot of autophagy related proteins in HepG2 cells. The settings on record: time dependent. The class given is cell-based, human. The method, then: Western blot analysis. Approximately 0.5×10^6 cells were grown on 60 mm culture plates and exposed to drugs as indicated for the desired time. The cells were then scraped out, washed in ice cold 1× PBS and pelleted down at 13000 rpm for 2 min. The pelleted cells were suspended in 150 μL of ice-cold whole cell lysis buffer[(20 mMTris of pH 7.4, 250 mM NaCl, 2 mM EDTA, 0.1% Triton, 1 mM DTT (1,4-dithiothreitol), 0.5 mM PMSF, 4 mM sodium orthovanadate, aprotinin (5 mg m/L) and leupeptin (5 mg m/L)] and kept in ice for 30 min, with intermittent vortexing every 5 min. After incubation, the lysate was centrifuged at 13000 rpm for 10 min at 4° C. and the supernatant was collected. The total protein content in the lysate was estimated by Bradford's method, and was then denatured by boiling with 5× loading dye before separating the proteins by SDSpolyacrylamidegel electrophoresis (SDS-PAGE). […]
(In general: In western blotting, separated proteins are transferred to a membrane and probed.)

For another assay, the system named is HL60. Kind of assay: MTT cell viability assay in HL60 cells. The class given is cell-based. The following applies: 72 h. The method, then: FIG. 2A is a graph comparison of IC50 of Uttroside B in a panel of cancer cells of different origin. The cancer cell lines HeLa, A375, HepG2, MDA-MB-231, HL 60, A549 and HCT116 were treated with Uttroside B as indicated, incubated for 72 h and the cell viability was assessed by MTT assay. FIG. 2B is a graph showing dose dependent effect of Uttroside B in the liver cancer cell lines and in normal immortalized hepatocytes. The liver cancer cell lines HepG2, Hep3B, SKHEP-1, Huh-7 and normal hepatocytes (Chang liver), were treated with Uttroside B incubated for 72 h and the cell viability was assessed by MTT assay. FIG. 2C is a graph comparison of IC50 of Uttroside B with sorafenib. HepG2 cells were treated with Uttroside B as indicated, incubated for 72 h, and the cell viability was assessed by MTT assay. […] The clones developed were counted and plotted as a graph. Colony containing more than four cells was counted as one clone. […]
MTT [3-(4,5-dimethylthiazole-2-yl)-2,5-diphenyltetrazolium bromide] assay is a standard colorimetric assay, suitable for analyzing proliferation, viability, and cytotoxicity. […] After overnight incubation, cells were treated with different concentrations of organic extracts (25-250 μg/ml) of S. nigrum and the isolated compound Uttroside B (250-1250 nM) for 72 h and cytotoxicity was measured. […]
(In general: Tetrazolium dyes change colour on reduction, which living cells bring about.)

On to `C[C@H](CC[C@@]1(O)O[C@H]2C[C@H]3[C@@H]4CC[C@H]5C[C@@H](O[C@@H]6O[C@H](CO)[C@H](O[C@@H]7O[C@H](CO)[C@@H](O)[C@H](O[C@@H]8OC[C@@H](O)[C@H](O)[C@H]8O)[C@H]7O[C@@H]7O[C@H](CO)[C@@H](O)[C@H](O)[C@H]7O)[C@H](O)[C@H]6O)CC[C@]5(C)[C@H]4CC[C@]3(C)[C@H]2[C@@H]1C)CO[C@@H]1O[C@H](CO)[C@@H](O)[C@H](O)[C@H]1O` [Uttroside B], for which the “expression of autophagy related proteins, HepG2” value in assay [1] was “induces up-regulation of all autophagy related proteins in a time dependent manner”. The IC50 in the assay on HL60 was determined as 2.5 µM.
